Assay results from patent publication US20080300182A1, “Eye disease treating agent and method for treating eye disease” (NIDEK CO., LTD., priority 2005, published 2008).
Ends that are not written are not given here.

Legend:
[1] = system: Muller cell of the retina; test: IL-6 expression in retinal tissue after administration into the vitreous body, anti-IL-6 immunostaining (Test Example 3); type: in vivo, rat; conditions: 10^−11 mol PACAP
Experimental: The PACAP 38 was dissolved in sterile physiological saline to a concentration of 3.3 nmol/ml. This was stored under ice-cooling until just before the administration.
Male Wister/ST rats of 8 weeks of age were used in this test. After anesthesia by intraperitoneal administration of pentobarbital sodium, 3 μl per one eye of the administration liquid was injected from about 1 mm behind the limbus using a Hamilton glass syringe equipped with a 30G needle, that is, the liquid was injected into the vitreous body in such a manner that 10^−11 mol of PACAP reached the retina. After 1, 2, 3 and 7 days of the PACAP administration, each animal was sacrificed by bleeding through the cutting of abdominal aorta under diethyl ether inhalation anesthesia, and then both eyeballs were enucleated, and fixed with ice-cold 4% paraformaldehyde-0.1 M phosphate buffer (pH 7.4). The fixed eyeballs were subjected to sucrose replacement and then freeze-embedded to prepare frozen sections of 10 μm in thickness. By applying fluorescence immunostaining to each of the frozen sections using an anti-IL-6 antibody, expression of IL-6 in the retina was observed.

[2] = system: cultured rat Muller cell; test: IL-6 production acceleration effect in cultured Muller cell (Test Example 1; IL-6 measured by B9 cell bioassay); type: cell-based; conditions: 24 hours after addition of PACAP 38 (10^−12 M, 10^−9 M to 10^−6 M), vs no addition, p<0.01
Experimental: Wister/ST rats of 14 days of age (20 animals) were sacrificed by bleeding through the cutting of abdominal aorta under diethyl ether anesthesia. The 40 eyeballs were immediately enucleated and soaked in Dulbecco's modified minimum essential medium (DMEM) containing 25 mM HEPES and antibiotics (penicillin 100 U/ml, streptomycin 100 μg/ml, amphotericin B 0.25 μg/ml), one night at room temperature under shade. Next, the eyeballs were transferred into DMEM containing 0.1% trypsin and 70 U/ml collagenase and incubated at 37° C. for 60 minutes. Thereafter, retinas were removed from the eyeballs and transferred into DMEM supplemented with antibiotics and 10% FBS (medium for culturing use) (8 retinas/10 ml DMEM). The retinas were dispersed and suspended until they became small aggregates through the pipetting using a Pasteur pipette having thinned tip. This cell suspension was seeded onto a polystyrene dish (Asahi Techno Glass) and cultured by keeping at 37° C. under an environment of 5% CO2/95% air. […]
The IL-6 concentration in the thus recovered Muller cell culture supernatant was measured using B9 cell which is a hybridoma sub-clone of an IL-6-dependent mouse. […] Regarding the bioassay of IL-6, growth of B9 cell was determined as the fluorescence intensity by Alamar Blue.

[3] = system: retinal ganglion cell; test: Kainic acid-induced retinal ganglion cell death model, number of cells remaining in the ganglion cell layer (Test Example 4); type: in vivo, rat
Experimental: Retinal nerve protecting effect was examined using a kainic acid-induced retinal ganglion cell death animal model.
Male Wister/ST rats of 8 weeks of age were used in the test. After anesthesia by intraperitoneal administration of pentobarbital sodium, PACAP 38 (10 μmol) dissolved in sterile physiological saline or the administration solvent (physiological saline) as the negative control was injected once into the vitreous body in the same manner as in Test Example 3. Two days after the PACAP administration, kainic acid (5 nmol) was injected once into the vitreous body of each animal under anesthesia by a mixed liquid of ketamine and seractal. 7 days after the kainic acid administration, all animals were sacrificed by bleeding through the cutting of abdominal aorta under diethyl ether inhalation anesthesia and their eyeballs were enucleated. The enucleated eyeballs were fixed by soaking in a 1% formaldehyde-1.25% glutaraldehyde mixed fixing liquid. The fixed eyeballs were embedded in paraffin, and then retinal tissue sections of 4 μm in thickness traversing the optic disc were prepared and subjected to hematoxylin eosin staining. Effect of PACAP was judged by counting the number of cells remaining in the ganglion cell layer within a region of from 0.5 to 1.7 mm from the optic disc of each tissue specimen. […]

[4] = system: retinal ganglion cell; test: Kainic acid-induced retinal ganglion cell death model, retinal tissue pNF-H content by sandwich ELISA (Test Example 5); type: in vivo, rat; conditions: 7 days after exposure
From the text: In order to clarify whether or not the IL-6 which is expressed in a delayed manner in Muller cell (Test Example 3) is concerned in the retinal ganglion cell death inhibitory effect of PACAP confirmed in Test Example 4, this was verified using the same animal model and using neurofilament (phosphorylated neurofilament-H; pNF-H) protein in the retinal tissue as the index. It is known that pNF-H is a protein which is specifically expressed in the retinal ganglion cell, and that the content of this protein in the retinal tissue can be used as a quantitative index for estimating degree of the retinal ganglion cell death.
A group in which 10 μmol of PACAP 38 is injected into the vitreous body 2 days before the kainic acid exposure in the same manner as in Test Example 4 (pretreatment group) and another group in which the same amount of PACAP is injected simultaneously with kainic acid (simultaneous treatment group) were set up as the test groups. The retinal tissue was collected 7 days after the kainic acid exposure, and the pNF-H protein was extracted. Amount of the pNF-H protein in retinal tissue was measured by the sandwich ELISA.

pituitary adenylate cyclase-activating polypeptide (HSDGIFTDSYSRYRKQMAVKKYLAAVLGKRYKQRVKNK; ends and bridges not checked; listed as Ovis sp.) [PACAP 38]
Expression of IL-6 in the retina ([1]; 1 day after intravitreal administration): not found
IL-6-positive cell in the retina ([1]; 2 days after intravitreal administration): frequently observed
IL-6-positive cell in the retina ([1]; 3 days after intravitreal administration): frequently observed
Expression of IL-6 in the retina ([1]; 7 days after intravitreal administration): hardly observed
IL-6 concentration in the culture liquid [2]: significantly increased
Average value of the number of cells remaining in the ganglion cell layer ([3]; PACAP 38 (10 μmol) intravitreal 2 days before kainic acid (5 nmol), 7 days after kainic acid, 0.5 to 1.7 mm from optic disc): 34.8 cells/mm
inhibition of the reduction of the number of cells caused by kainic acid ([3]; PACAP 38 (10 μmol) intravitreal 2 days before kainic acid, vs physiological saline control, p<0.05): found with a significance
reduction of the amount of pNF-H protein in the retinal tissue induced by kainic acid ([4]; pretreatment group: 10 μmol PACAP 38 intravitreal 2 days before kainic acid, vs saline, p<0.01): inhibited with a significance
effect to inhibit reduction of the amount of pNF-H ([4]; simultaneous treatment group: 10 μmol PACAP 38 injected simultaneously with kainic acid): completely absent
